In US20250206747A1, “COELENTERAZINE ANALOGUES” (priority 2023, published 2025):
Where two headings read alike, the source gives them in different places.

Columns and labels:
NANOLUC® luciferase [1] = biological target: T1, NANOLUC® luciferase (Oplophorus gracilirostris, UniProt Q9GV45, A31E/A60N/A81I/F95D/I117V/K70R/L54V/L99Q/M102K/N193R/P142E/Q151K/Q38R/Q45L/V71I/Y165I); test: Luminescent spectra of NANOLUC luciferase in the presence of coelenterazine analogue (peak emission); type: biochemical; settings: for λ max (nm): peak luminescence emission with NANOLUC luciferase
T1 sequence (Q9GV45 other isoform, or with tags, fused parts or gaps with the stated changes): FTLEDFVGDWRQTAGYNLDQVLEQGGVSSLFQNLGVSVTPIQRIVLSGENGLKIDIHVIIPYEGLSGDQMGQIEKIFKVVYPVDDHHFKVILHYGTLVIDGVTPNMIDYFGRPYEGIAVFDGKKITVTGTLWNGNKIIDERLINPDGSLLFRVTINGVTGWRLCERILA
Protocol: FIGS. 1A-1B show kinetic and spectral properties of coelenterazine analogues. (FIG. 1A) Michaelis-Menten analysis determining the relative luminescence produced by 0.01 nM NANOLUC® luciferase at various concentrations of coelenterazine analogues. […] (FIG. 1B) Luminescent spectra of 0.5 nM NANOLUC® luciferase in the presence of 20 μM coelenterazine analogue.
Experiments were conducted during the development of embodiments herein to test the effect of derivatization on the biochemical properties of novel coelenterazine analogues. Properties tested include the analogues' ability to be utilized by NANOLUC® luciferase, as assessed through the determination of Vmax and KM, as well as the peak wavelength of luminescence emission.

NANOLUC® luciferase [2] = biological target: T1, NANOLUC® luciferase; test: Michaelis-Menten analysis of relative luminescence produced by NANOLUC luciferase at various concentrations of coelenterazine analogues; type: biochemical; settings: 0.01 nM NANOLUC luciferase; for Vmax (norm): normalised to furimazine = 1; for Km: read-out: Km

| SMILES | Vmax (norm) (NANOLUC® luciferase [2]; Table 1) | λ max (nm) (NANOLUC® luciferase [1]; Table 1) | Vmax (norm) (NANOLUC® luciferase [2]; Table 2) | λ max (nm) (NANOLUC® luciferase [1]; Table 2) | further results |
| --- | --- | --- | --- | --- | --- |
| O=C1C(Cc2ccco2)N=C2C(c3cncc(Cl)c3)=NC(c3ccccc3)=CN12 (stereo not shown) [Compound 9812, 8-(5-chloropyridin-3-yl)-2-(furan-2-ylmethyl)-6-phenylimidazo[1,2-a]pyrazin-3(7H)-one] |  |  |  |  | shift of peak emission relative to compound 7314 (NANOLUC® luciferase [1]; reacted with NANOLUC luciferase, chloropyridin group in place of phenyl ring of 7314): red-shift the peak emission |
| O=c1c(Cc2ccco2)nc2c(-c3cnnc(Cl)c3)[nH]c(-c3ccccc3)cn1-2 [Compound 9894, 8-(6-Chloropyridazin-4-yl)-2-(furan-2-ylmethyl)-6-phenylimidazo[1,2-a]pyrazin-3(7H)-one] |  |  |  |  | peak emission (λem) (NANOLUC® luciferase [1]; Scheme 1, 0.5 nM NANOLUC luciferase, 20 μM coelenterazine analogue): 622 nm |
| O=c1c(Cc2ccco2)nc2c(-c3cnnc(Cl)c3)[nH]c(-c3cccc(F)c3)cn1-2 [Compound 10299] | 0.000505 | 622 |  |  |  |
| COc1cccc(-c2cn3c(=O)c(Cc4ccco4)nc-3c(-c3cnnc(Cl)c3)[nH]2)c1 [Compound 10300] | 0.000505 |  |  |  |  |
| O=c1c(Cc2ccco2)nc2c(-c3cnnc(Cl)c3)[nH]c(-c3cccc(F)c3F)cn1-2 [Compound 10427, 8-(6-chloropyridazin-4-yl)-6-(2,3-difluorophenyl)-2-(furan-2-ylmethyl)imidazo[1,2-a]pyrazin-3(7H)-one] |  |  | 0.0015 | 600 |  |
| O=c1c(Cc2ccco2)nc2c(Cc3ccccc3)[nH]c(-c3ccccc3)cn1-2 [Furimazine, reference compound] | 1 | 466 | 1 | 462 | Km (NANOLUC® luciferase [2]; Table 1): 0.23 µM; Km (NANOLUC® luciferase [2]; Table 2): 0.56 µM |
